Measurements taken from US9403843B2, “Cysteine protease inhibitors and uses thereof” (The Trustees of Columbia University in the City of New York, priority 2012, dated 2016).
Where two headings read alike, the source gives them in different places.

Columns and labels:
[1] = test system: Aβ-induced LTP impairment; assay: LTP rescue test; conditions: LTP rescue, benchmark
Experimental: Residual levels of potentiation were averaged during the last 5 min of LTP.

Cal I = assay: Relative selectivity for Cal I (E64 = 1.0), Table 2; assay type: biochemical; conditions: relative to E64 = 1.0
primary neurons = assay: LD50 in primary neurons; assay type: cell-based; conditions: YES = LD50 ≧ 50 μM in primary neurons
full-length human Cal1 [2] = biological target: T1, full-length human Cal1 (Homo sapiens (Human), UniProt P07384); assay: Calpain inhibition FRET assay; assay type: biochemical; conditions: Table 2; approximate IC50; read-out: Cal I IC50
T1 sequence (P07384 whole entry): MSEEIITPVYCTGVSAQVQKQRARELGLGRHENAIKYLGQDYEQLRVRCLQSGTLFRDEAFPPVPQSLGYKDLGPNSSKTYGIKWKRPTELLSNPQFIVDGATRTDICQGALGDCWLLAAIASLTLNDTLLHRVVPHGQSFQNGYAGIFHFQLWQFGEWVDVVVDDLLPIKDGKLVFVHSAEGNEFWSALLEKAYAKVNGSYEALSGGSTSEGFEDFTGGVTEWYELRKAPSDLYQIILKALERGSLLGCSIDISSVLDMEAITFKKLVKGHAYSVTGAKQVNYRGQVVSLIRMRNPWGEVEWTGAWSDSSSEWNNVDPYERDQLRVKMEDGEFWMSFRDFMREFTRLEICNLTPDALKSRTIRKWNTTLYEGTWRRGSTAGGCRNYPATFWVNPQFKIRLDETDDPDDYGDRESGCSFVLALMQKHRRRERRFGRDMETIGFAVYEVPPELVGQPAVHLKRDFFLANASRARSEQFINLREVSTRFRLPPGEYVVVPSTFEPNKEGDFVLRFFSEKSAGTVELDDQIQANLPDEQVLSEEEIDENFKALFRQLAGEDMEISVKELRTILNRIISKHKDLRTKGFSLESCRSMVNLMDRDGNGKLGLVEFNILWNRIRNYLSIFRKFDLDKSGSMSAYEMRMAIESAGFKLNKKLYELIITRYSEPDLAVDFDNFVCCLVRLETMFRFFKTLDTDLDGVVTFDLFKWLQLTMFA
T1 sequence (P04632 whole entry partner): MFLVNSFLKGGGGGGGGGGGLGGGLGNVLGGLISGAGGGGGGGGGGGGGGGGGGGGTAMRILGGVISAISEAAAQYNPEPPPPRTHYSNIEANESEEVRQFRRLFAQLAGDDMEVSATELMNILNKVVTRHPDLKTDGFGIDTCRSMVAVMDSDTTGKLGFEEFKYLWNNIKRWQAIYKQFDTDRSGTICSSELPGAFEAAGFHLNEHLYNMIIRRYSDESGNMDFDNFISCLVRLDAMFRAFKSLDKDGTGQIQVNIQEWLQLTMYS

papain = papain (Carica papaya (Papaya), UniProt P00784); assay: biochemical; assay type: biochemical; conditions: for ki Papain: inhibition rate; for rel Papain: ki/Ki calculated relative to E-64
Chain of papain (P00784 134-345): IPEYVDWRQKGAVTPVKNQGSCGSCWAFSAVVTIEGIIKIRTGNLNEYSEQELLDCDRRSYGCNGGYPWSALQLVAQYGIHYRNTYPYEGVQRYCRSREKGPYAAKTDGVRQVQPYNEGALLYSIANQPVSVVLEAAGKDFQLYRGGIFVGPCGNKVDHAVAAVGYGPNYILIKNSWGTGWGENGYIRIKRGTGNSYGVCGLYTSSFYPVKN
Source text: (§1) Papain is representative of a family of typically lysosomal or secreted cysteine proteases, including the human cathepsins (B, C, F, H, K, L1-2, O, S, W, Z). […] Several methods have been reported in the literature for detailed kinetic analysis of the irreversible inhibition of cysteine proteases, including Cal1. […] (SEQ ID NO: 8). Using this substrate, kinetic parameters were derived using the method of Davies and co-workers, whereby “progress curves” were initially obtained measuring product formation as a function of time and fitted to y=P∞*(1−e^(−k*x)) (FIG. 7) (Cuerrier, D. et al., J Biol Chem 2007, 282, 9600-11; herein incorporated by reference in its entirety). […] Kinetic parameters (ki, KI, ki/KI) were obtained from double reciprocal plots (FIG. 7).
(§2) Full length porcine calpain (156 nM), or papain (236 pM) was added to a solution of 100 mM NaCl, 50 mM HEPES, pH 7.6, 1 mM TCEP, 30 μM Suc-LLVY-AMC (SEQ ID NO: 8) substrate, and inhibitor (0.5 to 50 μM). Calpain reactions also contained CaCl2 (1 mM and 100 mM for porcine and rat respectively). Both substrate and inhibitors were dissolved in acetonitrile/DMSO (1:1) with the exception of E-64, dissolved in water. Organic solvent remained <2% in all reactions, and most often <1%. Reactions were carried out in microtiter 96-well plates, with 150 μL per well, 30° C., and product formation was monitored over time by fluorescence (Ex/Em 346/444 nm, with 420 nm cutoff filter). Kinetic values of kobs were determined via non-linear regression using one-phase association analysis and linear plots of 1/kobs vs. 1/[I] provided kinetic constants ki and KI.

full-length human Cal1 [3] = biological target: T1, full-length human Cal1; assay: Calpain inhibition FRET assay; assay type: biochemical; conditions: Table 3, 20 min incubation, FRET substrate
Cal1cat = Cal1cat (Rattus norvegicus (Rat), UniProt P97571); assay: LC-MS/MS examination of inhibitor modified Cal1cat active site; assay type: binding; conditions: for modification of the active site cysteine of Cal1cat: Cal1cat 1 μM, varying inhibitor concentration
Chain of Cal1cat (P97571 other isoform, or with tags, fused parts or gaps): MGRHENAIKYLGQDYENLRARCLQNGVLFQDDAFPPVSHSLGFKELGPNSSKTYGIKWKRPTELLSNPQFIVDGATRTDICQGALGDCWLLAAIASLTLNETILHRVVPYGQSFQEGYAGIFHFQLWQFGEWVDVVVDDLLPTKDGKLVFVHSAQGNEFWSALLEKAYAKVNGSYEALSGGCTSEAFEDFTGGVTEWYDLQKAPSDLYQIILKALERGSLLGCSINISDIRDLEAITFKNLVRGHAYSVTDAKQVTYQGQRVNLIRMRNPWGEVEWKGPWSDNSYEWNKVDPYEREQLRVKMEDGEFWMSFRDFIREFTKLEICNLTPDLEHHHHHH
Experimental: (FIG. 3A) After capping of free cysteines with iodoacetamide (IAA) and in gel digest, peptide fragments were analyzed by LC-MS/MS. (FIG. 3B) Total ion chromatograms (TIC) for the incubation of recombinant Cal1cat (5 μM) in the absence or presence of inhibitors (10 μM). A non-active site and IAA-capped peptide fragment (Rt=41.3 min) was used as an internal standard for EIC quantitation. (FIG. 3C) Active site Cys modification of Cal1cat was concentration dependent in incubation containing Cal1cat (1 μM) and vary concentrations of inhibitors.
Inhibition kinetics and x-ray crystallography support a mechanism of calpain inhibition by E-64, resulting from covalent modification of the active site Cys (Suzuki, K. et al., FEBS Letters 1983, 152, 67-70; herein incorporated by reference in its entirety). LC-MS/MS was used to support a similar mechanism for 24a. The experimental methodology is outlined in FIG. 3A. Cal1cat (5 μM) was incubated with the appropriate inhibitor (10 μM) for 30 min. The mixture was quenched with EDTA (10 μM), and run on a SDS PAGE gel. Band excision, in-gel capping office cysteines with iodoacetamide (IAA, […]), tryptic digest, and subsequent LC-MS/MS analysis afforded the chromatograms shown in FIG. 3B. […] A peptide fragment containing an IAA labeled non-active site cysteine was used as an internal standard for semi-quantitative EIC analysis of the degree of active site modification observed (FIG. 3B). It is noteworthy that although Cal1cat was employed in these studies, analysis of full length Cal1 gave an identical active site peptide fragment (TIC of control digest from Cal1cat and full length Cal1 are compared in Example 10).
The reaction was quenched with EDTA (10 μM) and reaction mixture ran on a SDS PAGE gel. The Cal1cat containing band was cut from the gel and submitted to in-gel alkylation with IAA (100 mM) for 60 min, followed by trypsin digestion. LC-MS/MS was carried out on an Agilent 6300 Ion-Trap LC/MS. […] The resulting TIC and EIC were analyzed for anticipated m/z modified peptide fragments.

Aβ40 and Aβ42 [4] = conditions: earlier observation; cited from earlier work
[5] = biological target: Full length porcine calpain (Sus scrofa (Pig), UniProt P35750); assay: Calpain inhibition kinetics studies (Suc-LLVY-AMC substrate); assay type: biochemical; conditions: for Ki: apparent equilibrium constant, read-out: K1 Calpain1; for Ki / ki Calpain1: full length Cal1; for ki Calpain1: inhibition rate; for rel Calpain1: ki/Ki calculated relative to E-64
Chain of Full length porcine calpain (P35750 whole entry): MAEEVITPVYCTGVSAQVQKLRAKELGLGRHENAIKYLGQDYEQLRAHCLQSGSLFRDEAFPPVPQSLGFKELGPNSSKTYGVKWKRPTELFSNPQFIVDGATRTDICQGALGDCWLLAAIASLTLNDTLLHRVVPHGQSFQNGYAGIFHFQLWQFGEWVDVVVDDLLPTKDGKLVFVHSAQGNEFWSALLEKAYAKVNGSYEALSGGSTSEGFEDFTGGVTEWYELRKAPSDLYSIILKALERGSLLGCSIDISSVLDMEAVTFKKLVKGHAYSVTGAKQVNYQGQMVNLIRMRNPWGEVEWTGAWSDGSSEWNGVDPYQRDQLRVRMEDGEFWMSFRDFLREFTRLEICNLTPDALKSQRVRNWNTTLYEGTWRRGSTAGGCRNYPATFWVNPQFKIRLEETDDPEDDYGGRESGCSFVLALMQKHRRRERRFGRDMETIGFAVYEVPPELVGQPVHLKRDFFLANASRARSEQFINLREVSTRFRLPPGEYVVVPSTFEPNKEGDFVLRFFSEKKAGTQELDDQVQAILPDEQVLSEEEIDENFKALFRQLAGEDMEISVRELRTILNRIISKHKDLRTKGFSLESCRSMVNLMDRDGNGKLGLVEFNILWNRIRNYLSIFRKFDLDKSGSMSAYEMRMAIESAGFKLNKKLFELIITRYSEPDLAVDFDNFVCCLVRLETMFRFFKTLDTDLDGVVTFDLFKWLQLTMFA
Chain of Full length porcine calpain (P04574 whole entry partner): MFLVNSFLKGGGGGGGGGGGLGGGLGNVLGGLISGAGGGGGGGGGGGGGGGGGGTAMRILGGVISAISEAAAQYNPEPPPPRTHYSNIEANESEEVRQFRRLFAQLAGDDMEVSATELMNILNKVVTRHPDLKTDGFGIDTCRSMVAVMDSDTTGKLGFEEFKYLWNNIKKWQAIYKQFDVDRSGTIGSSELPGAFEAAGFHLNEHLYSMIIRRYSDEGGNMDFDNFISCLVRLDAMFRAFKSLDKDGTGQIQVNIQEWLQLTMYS
Source text: as §1, §2

Cal1cat vs CathB = assay: Competition assay for Cal1 vs CathB using the biotinylated epoxide probe; assay type: binding, rat; conditions: for blocking of active site modification by probe 27 (western blot signal): 10 min pre-treatment, then 20 min with 27
Experimental: Anti-biotin western blotting of Cal1cat (Lane 6) or CathB (Lane 7) after incubation with 27 show the expected immunoreactivity of the covalently modified proteins. […] Densitometric analysis, using means from triplicate immunoblots, was used to estimate the modification of each protein by 27 in the presence of inhibitors relative to control (Lane 1: ratio=1.0).
Cal1cat was used in place of the full length enzyme to avoid autocatalysis.
Cal1cat and CathB were pre-treated with inhibitors for 10 min, followed by a 20 min incubation with the biotinylated epoxide, 27, as illustrated in FIG. 4. […] A more quantitative estimate of selectivity was achieved by comparison of band intensities.
The appropriate inhibitor (5 μM) was pre-incubated in a mixture containing Cal1cat (2 μM), CathB (2 μM), TCEP (1 mM), and Ca^2+ (30 μM) for 10 min at 37° C. […] (5 μM) was then added and the mixture incubated an additional 20 min. The reaction was quenched with EDTA (10 μM) and samples were ran using 4-16% SDS PAGE gel, subsequently transferred to PVDF membrane and visualized by Pierce ECL (Enhanced chemiluminescent) western blotting substrate, intensity of each blot was calculated using densitometry software. Relative inhibition of each enzyme was calculated with respect to enzyme activity in the absence of inhibitor. Inhibitor preference to Cal1cat with respect to CathB, was calculated by dividing relative Cal1cat inhibition with relative CathB inhibition of that particular inhibitor.

APP/PS1 mice [6] = assay: LTP in APP/PS1 mice after daily treatment; assay type: in vivo; conditions: daily treatment from 2 until 3 months
Experimental: P<0.05 in transgenics treated with compound compared to their respective vehicle-treated transgenics.
(§3) The ability of a prodrug to rescue the defects in associative and reference memory in 3 month old APP/PS1 animals was assessed. […] Thus, the esterification seems to improve PK but it spoils PD parameters. Compound 89 ameliorates both LTP and memory in 3 month old APP/PS1 mice (FIG. 15). Daily treatment with 89 from the age of 2 months until 3 months ameliorated the defect in LTP (A) contextual fear memory (B) and reference memory (C) in APP/PS1 mice. n=10 for all groups. P<0.05 in transgenics treated with compound compared to their respective vehicle-treated transgenics.

APP/PS1 mice [7] = assay: Behavioral rescue assays (contextual fear memory, 2-day RAWM reference memory); assay type: in vivo; conditions: 3 month old APP/PS1 mice
Source text: APP/PS1-vehicle: n=15; APP/PS1-67: n=6; APP/PS1-30a: n=10; WT-vehicle: n=15; WT-67=5; WT-30a: n=8, APP/PS1-33: n=11; WT-33: n=8, APP/PS1-50: n=10; WT-50: n=8. P<0.05 in all transgenic groups treated with compound compared to their respective vehicle-treated transgenics.
APP/PS1-vehicle: n=17; APP/PS1-67: n=9; APP/PS1-30a: n=10; WT-vehicle: n=18; WT-67=9; WT-30a: n=9, APP/PS1-33: n=10; WT-33: n=9, APP/PS1-50: n=11; WT-50: n=9.
The ability of compounds to rescue the defects in associative and reference memory in 3 month old APP/PS1 animals was assessed. Capability of ameliorating the defects in contextual fear memory was tested via i.p. administration (FIG. 12). In the 2-day RAWM test, daily injections of the 67, 30a, 33 and 50 from the 2nd month of age were beneficial against the loss of contextual fear memory and reference memory.
Impact of chronic treatment on against memory loss in older APP/PS1 mice (7 months of age) with a more severe plaque load was also investigated. Compounds 67, 33 and 50 were beneficial against memory impairment following chronic administration (FIG. 13).
as §3

Aβ40 and Aβ42 [8] = assay: Effect on Aβ levels in APP/PS1 mice; assay type: in vivo; conditions: compound-treated vs vehicle-treated APP/PS1 transgenics
Source text: Increase of brain and plasma levels of Aβ and appearance of amyloid plaques is an important feature of AD.

[9] = mean ± S.D. of triplicate experiments

CC(C)C[C@H](NC(=O)C1O[C@@H]1C(=O)O)C(=O)NCCCCNC(=N)N (stereo partly drawn) [Compound E64, L-trans-epoxysuccinyl-leucylamido(4-guanidino)butane, reference compound]
ED50 [1]: 650 nM
Relative selectivity for Cal I E64 = 1.0 (Cal I): 1.0
LD50 ≧ 50 μM primary neurons (primary neurons): YES
IC50 (full-length human Cal1 [2]): 100 nM
Ki (papain): 5.1 µM
ki Papain (papain): 28.6 s⁻¹
rel Papain (papain): 1
10^−5 × ki/Ki Papain (papain; [9]): 56.3 ± 5.2
IC50 (full-length human Cal1 [3]): 100 nM
modification of the active site cysteine of Cal1cat (Cal1cat): concentration dependent modification
Aβ levels and plaque load (Aβ40 and Aβ42 [4]): do not have any effect
Relative Selectivity ([5]; Cal1 over papain, ki/Ki relative to E-64 set at 1.0): 1
Ki [5]: 4 µM
ki Calpain1 [5]: 0.12 s⁻¹
rel Calpain1 [5]: 1
10^−4 × ki/Ki Calpain1 [5, 9]: 3.02 ± 0.15
blocking of active site modification by probe 27 (western blot signal) (Cal1cat vs CathB): substantial loss of signal
selectivity for Cal1cat (ratio of Cal1cat versus CathB band intensities) (Cal1cat vs CathB; ratio for probe 27 alone set as 1.0, inhibitor 5 μM): 1.5

CC(C)C[C@H](NC(=O)[C@H]1O[C@@H]1C(=O)O)C(=O)Nc1nc(-c2ccc(F)cc2)cs1 [Compound 24a, (2S,3S)-3-((S)-1-(4-(4-fluorophenyl)thiazol-2-ylamino)-4-methyl-1-oxopentan-2-ylcarbamoyl)oxirane-2-carboxylic acid]
Ki (papain; apparent equilibrium constant, read-out: K1 Papain): 1.6 µM
ki Papain (papain): 17.1 s⁻¹
rel Papain (papain): 1.9
modification of the active site cysteine of Cal1cat (Cal1cat): concentration dependent modification
active site modification on co-incubation of E-64 and 24a (EIC peak areas) (Cal1cat; Cal1cat with E-64 and 24a, both 1 μM): greater modification
Ki [5]: 6 µM
ki Calpain1 [5]: 0.16 s⁻¹
rel Calpain1 [5]: 0.91
blocking of active site modification by probe 27 (western blot signal) (Cal1cat vs CathB): substantially reduced signals from both enzymes

CC(C)C[C@H](NC(=O)[C@H]1O[C@@H]1C(=O)O)C(=O)NCCCCNS(=O)(=O)c1ccc(F)cc1 [Compound 25, (2S,3S)-3-((S)-1-(4-(4-fluorophenylsulfonamido)butylamino)-4-methyl-1-oxopentan-2-ylcarbamoyl)oxirane-2-carboxylic acid]
Relative selectivity for Cal I E64 = 1.0 (Cal I): 0.9
LD50 ≧ 50 μM primary neurons (primary neurons): YES
IC50 (full-length human Cal1 [2]): 100 nM
IC50 (full-length human Cal1 [3]): 150 nM

CC(C)C[C@H](NC(=O)[C@H]1O[C@@H]1C(=O)O)C(=O)NCCCCNC(=O)CCCCC1CCSS1 (stereo partly drawn) [Compound 26, (2S,3S)-3-((2S)-1-(4-(5-(1,2-dithiolan-3-yl)pentanamido)butylamino)-4-methyl-1-oxopentan-2-ylcarbamoyl)oxirane-2-carboxylic acid]
Relative selectivity for Cal I E64 = 1.0 (Cal I): 1.6
LD50 ≧ 50 μM primary neurons (primary neurons): YES
IC50 (full-length human Cal1 [2]): 150 nM
IC50 (full-length human Cal1 [3]): 100 nM

CC(C)C[C@H](NS(=O)(=O)c1ccccc1)C(=O)N[C@@H](C(C)C)[C@@H](O)c1c(-c2ccccc2)c1=O [BDA-410]
Aβ levels and plaque load (Aβ40 and Aβ42 [4]): do not have any effect

CCOC(=O)[C@@H]1O[C@H]1C(=O)N[C@@H](Cc1cscn1)C(=O)Nc1nc(-c2ccc(F)cc2)cs1 [Compound 89]
defect in LTP (APP/PS1 mice [6]): ameliorated
reference memory (APP/PS1 mice [7]; 2-day RAWM, daily from 2 months): ameliorated
contextual fear memory (APP/PS1 mice [7]; daily i.p. from 2 months): ameliorated
Aβ40 and Aβ42 levels in hippocampi (Aβ40 and Aβ42 [8]): no difference was detected
